Assays:
[1] = target: T1, Adrenergic β2 (H292 cells) (Homo sapiens, UniProt P07550); assay: Assay for Adrenergic β2 Mediated cAMP Production (concentration response, AlphaScreen cAMP detection); assay type: cell-based; settings: for EC50: cAMP production, 60 minutes at room temperature, 300 μM rolipram, read-out: β2 pEC50 (converted); for β2 Intrinsic activity: fraction relative to the maximum activity determined for formoterol
T1 construct: endogenous in cells; host or cells: H292 cells
In short: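 H292 cells plated overnight, pre-treated with rolipram (300 μM final) 10 min, then compound 60 min at room temperature in HBSS/10 mM HEPES pH7.4/5 mM glucose, 1% DMSO. Lysate cAMP read by AlphaScreen against a cAMP standard curve; 4-parameter fit gives pEC50 and intrinsic activity as fraction of formoterol maximum.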

[2] = target: T2, human muscarinic acetylcholine M3 receptor (M3-ACh) (Homo sapiens, UniProt P20309); assay: Muscarinic 3 Receptor Binding Assay ([3H]NMS competition, SPA); settings: [3H]NMS 0.1 nM, CHO-K1 cell membranes, 16 hours at room temperature; read-out: M3 pIC50 (converted)
T2 construct: expressed in transfected cells; host or cells: CHO-K1 (Chinese Hamster Ovary) cell membranes
T2 sequence (P20309 whole entry): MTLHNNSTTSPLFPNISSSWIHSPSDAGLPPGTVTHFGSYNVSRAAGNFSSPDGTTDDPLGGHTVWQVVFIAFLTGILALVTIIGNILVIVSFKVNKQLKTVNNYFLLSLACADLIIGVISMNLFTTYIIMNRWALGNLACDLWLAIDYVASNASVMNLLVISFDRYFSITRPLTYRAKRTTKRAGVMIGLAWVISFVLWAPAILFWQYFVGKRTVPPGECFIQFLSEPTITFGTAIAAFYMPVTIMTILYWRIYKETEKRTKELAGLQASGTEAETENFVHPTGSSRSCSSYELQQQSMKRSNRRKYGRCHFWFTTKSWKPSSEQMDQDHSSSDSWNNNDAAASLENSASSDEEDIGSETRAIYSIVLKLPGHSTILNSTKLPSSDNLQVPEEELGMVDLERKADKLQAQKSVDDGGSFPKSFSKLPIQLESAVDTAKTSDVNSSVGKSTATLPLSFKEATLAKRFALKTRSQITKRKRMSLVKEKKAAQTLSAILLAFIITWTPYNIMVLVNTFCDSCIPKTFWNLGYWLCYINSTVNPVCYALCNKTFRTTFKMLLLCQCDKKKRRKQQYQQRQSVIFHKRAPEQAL
In short: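 Competition SPA binding of 0.1 nM [3H]NMS (quarter Kd) to membranes from CHO-K1 cells expressing human M3, in 20 mM HEPES pH 7.4, 5 mM MgCl2, 1% DMSO. Incubated 16 h at room temperature; non-specific binding with 1 µM atropine. pIC50 from 50% reduction of specific binding.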

[3] = target: T1, Adrenergic β2 (H292 cells); assay: Adrenergic β2 Mediated cAMP Production, single concentration 1 μM; assay type: cell-based; settings: NCI-H292, 1 μM compound, percentage of the maximum response generated by 1E-07M formoterol, read-out: β2 (% effect at 1 μM)
In short: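 H292 cells were plated overnight, pre-treated with 300 μM rolipram for 10 min, then exposed to compound at 1 μM final (1% DMSO) for 60 min at room temperature. cAMP in the lysates was measured by AlphaScreen against a standard curve and expressed as % of the maximal response to 1E-07M formoterol.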

[4] = target: T2, human muscarinic acetylcholine M3 receptor (M3-ACh); assay: Muscarinic 3 Receptor Binding Assay, % inhibition specific binding at 1 μM; settings: 1 μM compound, % inhibition specific [3H]-NMS binding
In short: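 Competition binding of 0.1 nM [3H]NMS to membranes from CHO-K1 cells expressing human M3, SPA format, with compound at 1 μM in 20 mM HEPES pH 7.4, 5 mM MgCl2, 1% DMSO. Incubated 16 h at room temperature; non-specific binding defined by 1 μM atropine; value is % inhibition of specific binding.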

T1 sequence (P07550 whole entry): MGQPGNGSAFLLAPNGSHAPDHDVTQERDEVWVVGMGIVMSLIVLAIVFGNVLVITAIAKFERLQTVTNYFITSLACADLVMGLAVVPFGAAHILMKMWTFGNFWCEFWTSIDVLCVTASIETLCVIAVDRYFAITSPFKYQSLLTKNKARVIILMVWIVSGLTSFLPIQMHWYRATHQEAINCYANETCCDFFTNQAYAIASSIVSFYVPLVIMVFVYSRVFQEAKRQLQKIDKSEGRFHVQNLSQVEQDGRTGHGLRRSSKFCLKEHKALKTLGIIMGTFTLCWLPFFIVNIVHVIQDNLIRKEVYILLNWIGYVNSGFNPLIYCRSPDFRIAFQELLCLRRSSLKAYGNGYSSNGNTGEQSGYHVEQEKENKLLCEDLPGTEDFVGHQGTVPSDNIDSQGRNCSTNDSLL

SMILES	EC50 [1]	β2 Intrinsic activity [1]	IC50 [2]	activation at 1 µM [3]	inhibition at 1 µM [4]
O=C(c1ccc2c(c1)CCO2)N1CCOC2(CCN(Cc3cc(F)cc(CCNC[C@H](O)c4ccc(O)c5[nH]c(=O)sc45)c3)CC2)C1 [Example 149, (R)-7-(2-(3-((4-(2,3-dihydrobenzofuran-5-carbonyl)-1-oxa-4,9-diazaspiro[5.5]undecan-9-yl)methyl)-5-fluorophenethylamino)-1-hydroxyethyl)-4-hydroxybenzo[d]thiazol-2(3H)-one]	7.94 nM	0.9	25.1 nM	113%	92%
O=C(c1ccc2cccnc2c1)N1CCOC2(CCN(Cc3cc(F)cc(CCNC[C@H](O)c4ccc(O)c5[nH]c(=O)sc45)c3)CC2)C1 [Example 178, (R)-7-(2-(3-fluoro-5-((4-(quinoline-7-carbonyl)-1-oxa-4,9-diazaspiro[5.5]undecan-9-yl)methyl)phenethylamino)-1-hydroxyethyl)-4-hydroxybenzo[d]thiazol-2(3H)-one]	5.01 nM	0.8	31.6 nM	94%	89%
Cc1nc(C(=O)N2CCOC3(CCN(CCCCCCCCCNC[C@H](O)c4ccc(O)c5[nH]c(=O)sc45)CC3)C2)c(C)s1 [Example 201, (R)-7-(2-(9-(4-(2,5-dimethylthiazole-4-carbonyl)-1-oxa-4,9-diazaspiro[5.5]undecan-9-yl)nonylamino)-1-hydroxyethyl)-4-hydroxybenzo[d]thiazol-2(3H)-one]	31.6 nM	0.9	6.31 nM	105%	98%
O=C(c1ccc2occc2c1)N1CCOC2(CCN(CCCCCCCCCNC[C@H](O)c3ccc(O)c4[nH]c(=O)sc34)CC2)C1 [Example 209, (R)-7-(2-(9-(4-(benzofuran-5-carbonyl)-1-oxa-4,9-diazaspiro[5.5]undecan-9-yl)nonylamino)-1-hydroxyethyl)-4-hydroxybenzo[d]thiazol-2(3H)-one]	25.1 nM	0.9	2 nM	84%	99%
Cc1csc(C(=O)N2CCOC3(CCN(CCCCCCCCCNC[C@H](O)c4ccc(O)c5[nH]c(=O)sc45)CC3)C2)c1 [Example 213, (R)-4-hydroxy-7-(1-hydroxy-2-(9-(4-(4-methylthiophene-2-carbonyl)-1-oxa-4,9-diazaspiro[5.5]undecan-9-yl)nonylamino)ethyl)benzo[d]thiazol-2(3H)-one]	12.6 nM	0.8	0.794 nM	87%	99%
CCCc1nc(C(=O)N2CCOC3(CCN(CCCCCCCCCNC[C@H](O)c4ccc(O)c5[nH]c(=O)sc45)CC3)C2)cs1 [Example 219, (R)-4-hydroxy-7-(1-hydroxy-2-(9-(4-(2-propylthiazole-4-carbonyl)-1-oxa-4,9-diazaspiro[5.5]undecan-9-yl)nonylamino)ethyl)benzo[d]thiazol-2(3H)-one]	50.1 nM	0.8	1 nM	92%	99%

The remaining lines, values ahead:

EC50 [1]	β2 Intrinsic activity [1]	IC50 [2]	activation at 1 µM [3]	inhibition at 1 µM [4]	SMILES
2.51 nM	0.8	7.94 nM	93%	99%	O=C(c1ccc2occc2c1)N1CCOC2(CCN(Cc3cc(F)cc(CCNC[C@H](O)c4ccc(O)c5[nH]c(=O)sc45)c3)CC2)C1 [Example 173, (R)-7-(2-(3-((4-(benzofuran-5-carbonyl)-1-oxa-4,9-diazaspiro[5.5]undecan-9-yl)methyl)-5-fluorophenethylamino)-1-hydroxyethyl)-4-hydroxybenzo[d]thiazol-2(3H)-one]
12.6 nM	0.9	2 nM	77%	99%	O=C(c1ccc(Cl)s1)N1CCOC2(CCN(CCCCCCCCCNC[C@H](O)c3ccc(O)c4[nH]c(=O)sc34)CC2)C1 [Example 190, (R)-7-(2-(9-(4-(5-chlorothiophene-2-carbonyl)-1-oxa-4,9-diazaspiro[5.5]undecan-9-yl)nonylamino)-1-hydroxyethyl)-4-hydroxybenzo[d]thiazol-2(3H)-one]
12.6 nM	0.8	3.16 nM	82%	99%	Cc1ccc(C(=O)N2CCOC3(CCN(CCCCCCCCCNC[C@H](O)c4ccc(O)c5[nH]c(=O)sc45)CC3)C2)o1 [Example 198, (R)-4-hydroxy-7-(1-hydroxy-2-(9-(4-(5-methylfuran-2-carbonyl)-1-oxa-4,9-diazaspiro[5.5]undecan-9-yl)nonylamino)ethyl)benzo[d]thiazol-2(3H)-one]
20 nM	0.9	7.94 nM	98%	99%	Cc1cc(C(=O)N2CCOC3(CCN(CCCCCCCCCNC[C@H](O)c4ccc(O)c5[nH]c(=O)sc45)CC3)C2)c(C)s1 [Example 202, (R)-7-(2-(9-(4-(2,5-dimethylthiophene-3-carbonyl)-1-oxa-4,9-diazaspiro[5.5]undecan-9-yl)nonylamino)-1-hydroxyethyl)-4-hydroxybenzo[d]thiazol-2(3H)-one]
15.8 nM	0.8	7.94 nM	92%	95%	Cc1nc(CC(=O)N2CCOC3(CCN(CCCCCCCCCNC[C@H](O)c4ccc(O)c5[nH]c(=O)sc45)CC3)C2)cs1 [Example 210, (R)-4-hydroxy-7-(1-hydroxy-2-(9-(4-(2-(2-methylthiazol-4-yl)acetyl)-1-oxa-4,9-diazaspiro[5.5]undecan-9-yl)nonylamino)ethyl)benzo[d]thiazol-2(3H)-one]
39.8 nM	0.9	0.631 nM	103%	100%	O=C(c1csc(C(F)(F)F)n1)N1CCOC2(CCN(CCCCCCCCCNC[C@H](O)c3ccc(O)c4[nH]c(=O)sc34)CC2)C1 [Example 217, (R)-4-hydroxy-7-(1-hydroxy-2-(9-(4-(2-(trifluoromethyl)thiazole-4-carbonyl)-1-oxa-4,9-diazaspiro[5.5]undecan-9-yl)nonylamino)ethyl)benzo[d]thiazol-2(3H)-one]
25.1 nM	0.9	0.398 nM	95%	100%	O=C(c1csc(C2CC2)n1)N1CCOC2(CCN(CCCCCCCCCNC[C@H](O)c3ccc(O)c4[nH]c(=O)sc34)CC2)C1 [Example 218, (R)-7-(2-(9-(4-(2-cyclopropylthiazole-4-carbonyl)-1-oxa-4,9-diazaspiro[5.5]undecan-9-yl)nonylamino)-1-hydroxyethyl)-4-hydroxybenzo[d]thiazol-2(3H)-one]
25.1 nM	0.8	0.631 nM	109%	100%	O=C(c1csc(C2CCC2)n1)N1CCOC2(CCN(CCCCCCCCCNC[C@H](O)c3ccc(O)c4[nH]c(=O)sc34)CC2)C1 [Example 220, (R)-7-(2-(9-(4-(2-cyclobutylthiazole-4-carbonyl)-1-oxa-4,9-diazaspiro[5.5]undecan-9-yl)nonylamino)-1-hydroxyethyl)-4-hydroxybenzo[d]thiazol-2(3H)-one]

Reference: patent publication US8148373B2, “Compounds” (AstraZeneca AB, priority 2008, dated 2012)
